Consider ten compounds from DBAASP.

≈ marks a conversion by molar mass, not a printed value.

Among the test systems are Aureobasidium pullulans; Bacillus megaterium; Micrococcus luteus; Escherichia coli K-12; Klebsiella pneumoniae; Aspergillus fumigatus; Candida albicans; Proteus mirabilis; Pseudomonas aeruginosa; Staphylococcus aureus; Streptococcus pyogenes; Acinetobacter baumannii; Enterococcus faecalis; Escherichia coli.
What all share (experiment): ≥ marks a high value that may be exact or a test limit, other limits are often not marked, values filed in µg/mL are converted to µM
In assay [1] the test system is Bacillus subtilis ATCC 23857.
The test system of assay [2] is Candida albicans ATCC 10231.
In assay [3] the test system is Corynebacterium glutamicum ATCC 13032.
The subject of assay [4] is Escherichia coli ATCC 25922.
For assay [5], the system named is Pseudomonas aeruginosa ATCC 27853.
Assay [6] deals with Staphylococcus aureus ATCC 9144.
Assay [7] deals with Pseudomonas aeruginosa PAO1.
In assay [8] the test system is Staphylococcus aureus NCTC 8325-4.
In assay [9] the test system is Bacillus subtilis CCT 2471.
For assay [10], the system named is Escherichia coli CCT 1371.
Assay [11] concerns Pseudomonas aeruginosa ATCC 15442.
Assay [12] relates to Staphylococcus aureus ATCC 25923.
For assay [13], the system named is Staphylococcus aureus ATCC 6538.
The test system of assay [14] is Staphylococcus epidermidis.
Assay [15] concerns Staphylococcus saprophyticus.
Assay [16] relates to Erwinia amylovora PMV 6076.
The subject of assay [17] is Pseudomonas syringae pv. syringae EPS 94.
The subject of assay [18] is Xanthomonas campestris pv. Vesicatoria 2133-2.

`C[C@H](NC(=O)[C@H](CCCCN)NC(=O)[C@H](Cc1c[nH]c2ccccc12)NC(=O)CNC(=O)[C@H](Cc1c[nH]c2ccccc12)NC(=O)[C@H](Cc1c[nH]c2ccccc12)NC(=O)[C@H](CCCCN)NC(=O)[C@H](CCCCN)NC(=O)CN)C(=O)N[C@@H](CCCCN)C(N)=O` [GKKWWGWKAK]: the MIC against Aureobasidium pullulans is 24.6 µM (≈ 31.3 µg/mL); with Bacillus megaterium, 0.785 µM (≈ 0.999 µg/mL); in assay [1], 12.2 µM (≈ 15.6 µg/mL); in assay [2], 24.6 µM (≈ 31.3 µg/mL); in [3] it was 1.57 µM (≈ 2 µg/mL); in assay [4], 24.6 µM (≈ 31.3 µg/mL). Moreover, the MIC against Micrococcus luteus is 12.2 µM (≈ 15.6 µg/mL); in assay [5] it was 196 µM (≈ 250 µg/mL); in assay [6], at least 196 µM.
As to `CC[C@H](C)[C@H](N)C(=O)N[C@@H](CCCCN)C(=O)N[C@@H](CCCCN)C(=O)N[C@H](C(=O)N[C@H](C(=O)N[C@@H](CCCCN)C(=O)N[C@@H](CCCCN)C(=O)N[C@H](C(=O)N[C@H](C(=O)N[C@@H](CCCCN)C(N)=O)[C@@H](C)CC)[C@@H](C)CC)[C@@H](C)CC)[C@@H](C)CC` [IKKIIKKIIK], the MIC against Escherichia coli K-12 was at least 500 µM; in the assay with Klebsiella pneumoniae, over 500 µM; in assay [7] it was over 500 µM; in assay [8], at least 500 µM.
For the compound `CC(C)C[C@H](NC(=O)[C@H](Cc1ccccc1)NC(=O)[C@@H]1CCCN1C(=O)[C@H](Cc1c[nH]c2ccccc12)NC(=O)[C@H](CS)NC(=O)[C@@H](NC(=O)[C@H](Cc1c[nH]c2ccccc12)NC(=O)[C@@H]1CCCN1C(=O)[C@H](Cc1ccccc1)NC(=O)[C@H](CCCN=C(N)N)NC(=O)[C@H](CCCN=C(N)N)NC(=O)[C@@H](N)CCCN=C(N)N)C(C)C)C(=O)N[C@@H](CCCN=C(N)N)C(=O)N[C@@H](CCCN=C(N)N)C(=O)N[C@@H](CCCN=C(N)N)C(=O)O` [RRRFPWVCWPFLRRR], the MIC against Aspergillus fumigatus was at least 117 µM; with Candida albicans, 469 µM (≈ 1000 µg/mL).
As to `CC[C@H](C)[C@H](N)C(=O)N[C@@H](CC(N)=O)C(=O)N[C@@H](CC(C)C)C(=O)N[C@@H](CC(C)C)C(=O)N[C@@H](CCCCN)C(=O)N[C@H](C(=O)N[C@@H](C)C(=O)N[C@@H](CCCCN)C(=O)NCC(=O)N[C@H](C(=O)N[C@H](C(=O)N[C@@H](CCCCN)C(=O)N[C@@H](CO)C(=O)N[C@@H](CC(C)C)C(=O)O)[C@@H](C)CC)[C@@H](C)CC)[C@@H](C)CC` [INLLKIAKGIIKSL], the MIC was at least 65.6 µM in [9]; over 65.6 µM in the assay on Candida albicans; 16.4 µM (≈ 25 µg/mL) in assay [4]; at least 32.8 µM in assay [10]; at least 65.6 µM in [11]; 6.56 µM (≈ 10 µg/mL) in [12]. Also, the MIC is 65.6 µM (≈ 100 µg/mL) in [13], at least 32.8 µM in assay [14] and 16.4 µM (≈ 25 µg/mL) in assay [15].
With `CC(C)C[C@H](NC(=O)[C@H](Cc1cnc[nH]1)NC(=O)[C@H](CCC(=O)O)NC(=O)[C@H](Cc1c[nH]c2ccccc12)NC(=O)[C@H](CC(=O)O)NC(=O)[C@H](CCCCN)NC(=O)[C@H](CC(C)C)NC(=O)[C@H](Cc1cnc[nH]1)NC(=O)[C@H](CCC(=O)O)NC(=O)[C@H](Cc1c[nH]c2ccccc12)NC(=O)[C@H](CC(=O)O)NC(=O)[C@H](CCCCN)NC(=O)[C@H](CC(C)C)NC(=O)[C@H](Cc1cnc[nH]1)NC(=O)[C@H](CCC(=O)O)NC(=O)[C@H](Cc1c[nH]c2ccccc12)NC(=O)[C@H](CC(=O)O)NC(=O)[C@@H](N)CCCCN)C(=O)O` [KDWEHLKDWEHLKDWEHL], the MIC in assay [16], in assay [17] and in [18] was at least 100 µM each time.
On to `NC(N)=NCCC[C@H](NC(=O)[C@H](CCCN=C(N)N)NC(=O)[C@H](CCCN=C(N)N)NC(=O)[C@H](CCCN=C(N)N)NC(=O)[C@H](CCCN=C(N)N)NC(=O)[C@H](CCCN=C(N)N)NC(=O)[C@H](CCCN=C(N)N)NC(=O)[C@H](CCCN=C(N)N)NC(=O)[C@H](Cc1c[nH]c2ccccc12)NC(=O)[C@@H](N)Cc1c[nH]c2ccccc12)C(=O)O` [WWRRRRRRRR], for which the MIC against Proteus mirabilis is at least 39 µM; against Pseudomonas aeruginosa it was over 39 µM; against Staphylococcus aureus, 5.49 µM (≈ 9 µg/mL); in the assay with Streptococcus pyogenes it was 0.61 µM (≈ 1 µg/mL).
On to `CC(C)[C@H](NC(=O)[C@H](CCCCN)NC(=O)[C@H](C)NC(=O)[C@@H](NC(=O)[C@@H](NC(=O)[C@H](CCCN=C(N)N)NC(=O)[C@H](CCCN=C(N)N)NC(=O)[C@H](Cc1c[nH]c2ccccc12)NC(=O)[C@H](Cc1c[nH]c2ccccc12)NC(=O)CN)[C@@H](C)O)C(C)C)C(=O)N[C@@H](C)C(=O)N[C@@H](CCCCN)C(N)=O` [GWWRRTVAKVAK], for which the MIC in the assay on Aureobasidium pullulans is at least 50 µM; in [2] it was 25 µM (≈ 36.4 µg/mL); in [3], 1.6 µM (≈ 2.33 µg/mL); in assay [4] it was 12.5 µM (≈ 18.2 µg/mL); in assay [5], 12.5 µM (≈ 18.2 µg/mL); in assay [6] it was at least 100 µM.
`CC[C@H](C)[C@H](NC(=O)[C@H](CCCCN)NC(=O)[C@H](CCCCN)NC(=O)[C@H](Cc1ccccc1)NC(=O)[C@H](CC(C)C)NC(=O)[C@H](CCCCN)NC(=O)[C@@H](N)CCCCN)C(=O)N[C@@H](CC(C)C)C(=O)N[C@@H](CCCCN)C(=O)N[C@@H](Cc1ccc(O)cc1)C(=O)N[C@@H](CC(C)C)C(=O)O` [KKLFKKILKYL]: the MIC in assay [16] was found to be 8.66 µM (≈ 12.3 µg/mL); in [17], 8.66 µM (≈ 12.3 µg/mL); in assay [18], 14.1 µM (≈ 20.1 µg/mL).
On to `CC[C@H](C)[C@H](NC(=O)CNC(=O)[C@H](CCCN=C(N)N)NC(=O)[C@H](Cc1ccc(O)cc1)NC(=O)[C@H](CC(C)C)NC(=O)[C@H](CCCCN)NC(=O)CNC(=O)[C@H](Cc1ccccc1)NC(=O)[C@@H](N)Cc1c[nH]c2ccccc12)C(=O)N[C@H](C(=O)N[C@@H](CO)C(=O)N[C@H](C(=O)N[C@H](C(=O)N[C@@H](CCCCN)C(=O)N[C@@H](CCCCN)C(=O)N[C@H](C(=O)N[C@@H](CCCCN)C(=O)NCC(=O)N[C@@H](CC(C)C)C(=O)N[C@@H](CC(C)C)C(=O)N[C@@H](CO)C(=O)NCC(=O)O)C(C)C)C(C)C)C(C)C)[C@@H](C)O` [WFGKLYRGITSVVKKVKGLLSG], for which the MIC is 1.3 µM (≈ 3.17 µg/mL) with Acinetobacter baumannii; 2.6 µM (≈ 6.34 µg/mL) with Enterococcus faecalis; 1.3 µM (≈ 3.17 µg/mL) in the assay on Escherichia coli; 1.3 µM (≈ 3.17 µg/mL) in the assay on Klebsiella pneumoniae; 2.6 µM (≈ 6.34 µg/mL) in the assay on Pseudomonas aeruginosa; 10.3 µM (≈ 25.1 µg/mL) against Staphylococcus aureus. The compound further showed an MIC in assay [14] of 2.6 µM (≈ 6.34 µg/mL).
As to `CC(C)C[C@H](NC(=O)[C@H](CC(C)C)NC(=O)[C@H](CCCCN)NC(=O)[C@H](CCCCN)NC(=O)[C@H](C)NC(=O)[C@H](CC(C)C)NC(=O)[C@H](C)NC(=O)[C@H](CCCCN)NC(=O)[C@H](CC(C)C)NC(=O)[C@H](Cc1c[nH]c2ccccc12)NC(=O)[C@H](Cc1c[nH]c2ccccc12)NC(=O)[C@H](CCCN=C(N)N)NC(=O)[C@H](Cc1c[nH]c2ccccc12)NC(=O)[C@H](CCCCN)NC(=O)[C@@H](N)CCCCN)C(N)=O` [KKWRWWLKALAKKLL], the MIC against Acinetobacter baumannii worked out at 0.203 µM (≈ 0.4 µg/mL); with Enterococcus faecalis, 0.356 µM (≈ 0.7 µg/mL); with Pseudomonas aeruginosa, 0.61 µM (≈ 1.2 µg/mL); in the assay with Staphylococcus aureus it was 0.254 µM (≈ 0.5 µg/mL).
